According to patent US10011877B2, “Treatment of bladder cancer to overcome chemoresistance” (Genedia Biotech Co., Ltd., priority 2015, dated 2018):

How the values were obtained:
[1] = test system: H-bc-derived tumor xenografts; test: H-bc-derived tumor xenografts in nude mice, tumor weight day 25; format: in vivo, BALB/c male nude mice; conditions: H-bc tumors, Pa 45 ug/mouse intraperitoneal once in 2 days
Text: (§1) Animal experiments were undertaken in accordance with the National Institutes of Health Guide for the Care and Use of Laboratory Animals. BALB/c male nude mice aged of 8-12 weeks were used for this study. 5637 or H-bc cells were embedded in BD Matrigel Matrix (Becton, Dickinson, Franklin Lakes, N.J., USA) and subcutaneously injected into the four sites at the back of mice as following: 1.7×10^7 cells/site for 5637, 0.7×10^7 cells/site for H-bc, 4 sites/mouse, 6 mice for 5637, 6 mice for H-bc, respectively. From the fourth day after cell injection, all 5637-generated tumors were intratumorally injected with 2 nM miR-193a-3p agomiR or miR-193a-5p agomiR, while H-bc-generated tumors were injected with 4 nM miR-193a-3p/-5p/Mock antagomiR/PBS in a similar manner. From the sixth day after cell injection, three mice from 5637 and three from H-bc intraperitoneally received Pa (45 ug/mouse) once in 2 days. The remaining six mice (three from 5637 and three from H-bc) received PBS as a mock treatment control. Mice were humanely killed on day 25, and the tumors were weighed and photographed. The tumor weight was described as the mean±S.D.
(§2) Animal experiments were undertaken in accordance with the National Institutes of Health Guide for the Care and Use of Laboratory Animals. BALB/c male nude mice of 8-12 weeks of age were used for this study. […]

[2] = test system: 5637 cell-derived tumor xenograft; test: 5637-derived tumor xenografts in nude mice, tumor weight day 25; format: in vivo, BALB/c male nude mice; conditions: 5637 tumors, Pa 45 ug/mouse intraperitoneal once in 2 days
Text: as §1, §2

## CC(=O)O[C@H]1C(=O)[C@@]2(C)[C@H]([C@H](OC(=O)c3ccccc3)[C@]3(O)C[C@H](OC(=O)[C@H](O)[C@@H](NC(=O)c4ccccc4)c4ccccc4)C(C)=C1C3(C)C)[C@]1(OC(C)=O)CO[C@@H]1C[C@@H]2O [Pacilitaxol, Paclitaxel]
[1]
  tumor weight ratio of the Pa treated over PBS treated: 0.40
[2]
  tumor weight ratio of the Pa treated over PBS treated: 0.283
